# Non-standard residues stand in square brackets, D forms with d. Residues, ends and D or L forms follow the SMILES beside them. Hyp = O=C(O)[C@@H]1C[C@@H](O)CN1
# Experiments:
# [1] = for Tm^obs: peptide of Table 3, defined standard conditions
# Method in brief: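 Host-guest peptides in Gly-Xaa1-Hyp or Gly-Pro-Xaa2 contexts were melted at 1 mg/ml in PBS, pH 7.0. The heating rate averaged 0.1° C./minute, and residue propensity was derived from the Tm values.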
# [2] = Method for predicting global Tm of collagen peptides from amino acid sequence; conditions: observed minus predicted, peptides of Table 3
# [3] = Predicted Tm of guest triplets/hexapeptides by additivity of Xaa1 and Xaa2 residues (Equation 1); conditions: host-guest collagen-like peptides
# Method: A complete table of the stability for all Gly-Xaa1-Xaa2 triplets was constructed using the experimental values for all frequent sequences and the predicted values for all others (Table 1; experimental values are in bold). Predicted values were calculated on the basis of additivity of residues in the Xaa1 and Xaa2 position (Persikov, et al. (2002) supra; Equation 1). Tm^GX^1^X^2=Tm^GX^1^O+Tm^GPX^2−Tm^GPO (1)
# The predicted values gave good agreement (within ±3° C.) for the Gly-Ala-Ala and for 28 other guest triplets of the 41 Gly-Xaa1-Xaa2 triplets studied in host-guest collagen-like peptides. […] Observed Tm values of Gly-Xaa1-Arg sequences (Gly-Glu-Arg, Gly-Ala-Arg, Gly-Lys-Arg, Gly-Gln-Arg, and Gly-Asp-Arg) were 2.5° C. smaller on average than predicted, indicating the need for a correction factor in a Gly-Xaa1-Arg context versus a Gly-Pro-Arg context.
# Interactions between adjacent Gly-Xaa1-Xaa2 tripeptides were included in the calculations. One study reported stabilities of a selection of host-guest peptides including residues in two adjacent tripeptide units, Gly-Xaa1-Xaa2-Gly-Xaa1′-Xaa2′, covering possible direct interchain or intrachain interactions between residues that are separated by ≦3 residues in sequence (Persikov, et al. (2005) supra) (FIG. 1).
molecule,measurement,setting,value
"CC[C@H](C)[C@H](NC(=O)CNC(=O)[C@@H]1C[C@@H](O)CN1C(=O)[C@@H]1CCCN1C(=O)CNC(=O)[C@@H]1C[C@@H](O)CN1C(=O)[C@@H]1CCCN1C(=O)CNC(=O)[C@@H]1C[C@@H](O)CN1C(=O)[C@@H]1CCCN1)C(=O)N[C@H](C(=O)NCC(=O)N[C@@H](C)C(=O)N[C@@H](CCCNC(=N)N)C(=O)NCC(=O)N[C@@H](CC(C)C)C(=O)N[C@@H](C)C(=O)NCC(=O)N1CCC[C@H]1C(=O)N1C[C@H](O)C[C@H]1C(=O)NCC(=O)N1CCC[C@H]1C(=O)N1C[C@H](O)C[C@H]1C(=O)NCC(=O)N1CCC[C@H]1C(=O)N1C[C@H](O)C[C@H]1C(=O)NCC(=O)N1CCC[C@H]1C(=O)N1C[C@H](O)C[C@H]1C(=O)NCC(=O)O)[C@@H](C)O [T3-785, PO-(GPO)2-GIT-GAR-GLA-(GPO)4-G] (H-P[Hyp]GP[Hyp]GP[Hyp]GITGARGLAGP[Hyp]GP[Hyp]GP[Hyp]GP[Hyp]G-OH)",Tm^obs,[1],18.0 °C
same,ΔTm,[2],0.9 °C
"CC(=O)NCC(=O)N1CCC[C@H]1C(=O)N1C[C@H](O)C[C@H]1C(=O)NCC(=O)N[C@@H](CCCNC(=N)N)C(=O)N1C[C@H](O)C[C@H]1C(=O)NCC(=O)N[C@@H](CCCNC(=N)N)C(=O)N[C@@H](CCCNC(=N)N)C(=O)NCC(=O)N[C@@H](CCCNC(=N)N)C(=O)N1C[C@H](O)C[C@H]1C(=O)NCC(=O)N[C@@H](CC(C)C)C(=O)N[C@@H](CCCCN)C(=O)NCC(=O)N[C@@H](CCC(=O)O)C(=O)N[C@@H](CCC(N)=O)C(=O)NCC(=O)N1CCC[C@H]1C(=O)N1C[C@H](O)C[C@H]1C(=O)NCC(=O)N1CCC[C@H]1C(=O)N1C[C@H](O)C[C@H]1C(=O)NCC(=O)N1CCC[C@H]1C(=O)N1C[C@H](O)C[C@H]1C(=O)NCC(=O)N1CCC[C@H]1C(=O)N1C[C@H](O)C[C@H]1C(=O)NCC(=O)N[C@@H](Cc1ccc(O)cc1)C(N)=O [C1qA-15, Ac-GPO-GRO-GRR-GRO-GLK-GEQ-(GPO)4-GY-NH2] (Ac-GP[Hyp]GR[Hyp]GRRGR[Hyp]GLKGEQGP[Hyp]GP[Hyp]GP[Hyp]GP[Hyp]GY-NH2)",Tm^obs,[1],23.3 °C
same,ΔTm,[2],−7.4 °C
"CC(=O)NCC(=O)N1CCC[C@H]1C(=O)N1C[C@H](O)C[C@H]1C(=O)NCC(=O)N1CCC[C@H]1C(=O)N1C[C@H](O)C[C@H]1C(=O)NCC(=O)N[C@@H](CCCNC(=N)N)C(=O)N[C@@H](CCC(N)=O)C(=O)NCC(=O)N[C@@H](CCCCN)C(=O)N[C@@H](CCCNC(=N)N)C(=O)NCC(=O)N[C@@H](CCCCN)C(=O)N1C[C@H](O)C[C@H]1C(=O)NCC(=O)N1CCC[C@H]1C(=O)N1C[C@H](O)C[C@H]1C(=O)NCC(=O)N1CCC[C@H]1C(=O)N1C[C@H](O)C[C@H]1C(=O)NCC(=O)N1CCC[C@H]1C(=O)N1C[C@H](O)C[C@H]1C(=O)NCC(=O)NCC(N)=O [AchE-HG-Alt, Ac-GPO-GPO-GRQ-GKR-GKO-GPO-GPO-GPO-GG-NH2] (Ac-GP[Hyp]GP[Hyp]GRQGKRGK[Hyp]GP[Hyp]GP[Hyp]GP[Hyp]GG-NH2)",Tm^obs,[1],20.1 °C
same,ΔTm,[2],−0.5 °C
Gly-Ala-Ala,deviation of observed Tm from predicted Tm of guest triplet,[3],≤ 3 °C
same,experimentally observed Tm of Gly-Xaa1-Xaa2 tripeptide unit in a triple helix,"[1]; host-guest peptide, (Gly-Pro-Hyp)8 host, c=1 mg/ml in phosphate-buffered saline, pH 7.0, heating rate 0.1° C./minute",32.9 °C

# — patent publication US8280710B2, “Method for determining thermal stability of collagen or collagen-like peptide” (University of Medicine and Dentistry of New Jersey, priority 2005, dated 2012)
